Biological target: T1, h-jak3(810-1124) (JAK3: Recombinant human kinase domain) (Homo sapiens, UniProt P52333)
T1 construct: jak3(810- 1124)-sf9-c; made in house; host or cells: Sf9
Assay: Determination of IC50 of Janus Kinase (JAK) inhibition: JAK3 radioactive end-point 33P-ATP kinase assay
Format: biochemical
Settings: no additive; ATP 1.5 uM, peptide 50 uM, 20 minutes, room temperature; read-out: Ic50 h-jak3(810-1124)-sf9-c: no additive

T1 sequence (P52333 810-1124): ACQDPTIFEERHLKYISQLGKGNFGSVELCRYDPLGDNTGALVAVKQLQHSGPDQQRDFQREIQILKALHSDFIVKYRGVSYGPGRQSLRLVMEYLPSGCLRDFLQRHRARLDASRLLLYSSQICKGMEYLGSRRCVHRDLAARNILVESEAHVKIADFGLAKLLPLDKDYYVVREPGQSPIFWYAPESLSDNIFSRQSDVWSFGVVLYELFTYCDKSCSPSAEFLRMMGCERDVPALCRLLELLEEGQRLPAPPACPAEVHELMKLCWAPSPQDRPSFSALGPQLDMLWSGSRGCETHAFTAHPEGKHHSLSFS

Row | SMILES | IC50
1 | N#CC1CCN(C(=O)[C@H](NC(=O)c2c[nH]c3ncc(C4CC4)nc23)C2CCCC2)CC1 [Example I-45, 2-Cyclopropyl-5H-pyrrolo[2,3-b]pyrazine-7-carboxylic acid [(R)-2-(4-cyano-piperidin-1-yl)-1-cyclopentyl-2-oxo-ethyl]-amide] | 0.7 nM
2 | N#CC1CCN(C(=O)[C@@H](NC(=O)c2c[nH]c3ncc(C4CC4)nc23)C2(C(F)(F)F)CC2)CC1 [Example I-46, 2-Cyclopropyl-5H-pyrrolo[2,3-b]pyrazine-7-carboxylic acid [(S)-2-(4-cyano-piperidin-1-yl)-2-oxo-1-(1-trifluoromethyl-cyclopropyl)-ethyl]-amide] | 4.29 nM
3 | N#CC1CCN(C(=O)[C@H](NC(=O)c2c[nH]c3ncc(C4CC4)nc23)C2(C(F)(F)F)CC2)CC1 [Example I-47, 2-Cyclopropyl-5H-pyrrolo[2,3-b]pyrazine-7-carboxylic acid [(R)-2-(4-cyano-piperidin-1-yl)-2-oxo-1-(1-trifluoromethyl-cyclopropyl)-ethyl]-amide] | 1.04 nM
4 | N#CC1CCN(C(=O)[C@@H](Cc2ccccc2)NC(=O)c2c[nH]c3ncc(C4CC4)nc23)CC1 [Example I-48, 2-Cyclopropyl-5H-pyrrolo[2,3-b]pyrazine-7-carboxylic acid [(R)-1-benzyl-2-(4-cyano-piperidin-1-yl)-2-oxo-ethyl]-amide] | 0.6 nM
5 | CC(C)(C)[C@@H](NC(=O)c1c[nH]c2ncc(-c3cc(C(F)(F)F)cc(C(F)(F)F)c3)nc12)C(=O)N1CCC(C#N)CC1 [Example I-50, 2-(3,5-Bis-trifluoromethyl-phenyl)-5H-pyrrolo[2,3-b]pyrazine-7-carboxylic acid [(R)-1-(4-cyano-piperidine-1-carbonyl)-2,2-dimethyl-propyl]-amide] | 0.4 nM
6 | CC(C)(C)[C@@H](NC(=O)c1c[nH]c2ncc(-c3cccc(N4CCCC4)c3)nc12)C(=O)N1CCC(C#N)CC1 [Example I-51, 2-(3-Pyrrolidin-1-yl-phenyl)-5H-pyrrolo[2,3-b]pyrazine-7-carboxylic acid [(R)-1-(4-cyano-piperidine-1-carbonyl)-2,2-dimethyl-propyl]-amide] | 111 nM
7 | Cn1cc(-c2cnc3[nH]cc(C(=O)N[C@@H](C(=O)N4CC(C#N)C4)C(C)(C)C)c3n2)cn1 [Example I-53, 2-(1-Methyl-1H-pyrazol-4-yl)-5H-pyrrolo[2,3-b]pyrazine-7-carboxylic acid [(R)-1-(3-cyano-azetidine-1-carbonyl)-2,2-dimethyl-propyl]-amide] | 279 nM
8 | CC(C)(C)[C@@H](NC(=O)c1c[nH]c2ncc(-c3cn[nH]c3)nc12)C(=O)N1CCC(C#N)CC1 [Example I-54, 2-(1H-Pyrazol-4-yl)-5H-pyrrolo[2,3-b]pyrazine-7-carboxylic acid [(R)-1-(4-cyano-piperidine-1-carbonyl)-2,2-dimethyl-propyl]-amide] | 14.9 nM
9 | Cn1cc(-c2cnc3[nH]cc(C(=O)N[C@@H](C(=O)N4CC[C@@H](C#N)C4)C(C)(C)C)c3n2)cn1 [Example I-60, 2-(1-Methyl-1H-pyrazol-4-yl)-5H-pyrrolo[2,3-b]pyrazine-7-carboxylic acid [(R)-1-((R)-3-cyano-pyrrolidine-1-carbonyl)-2,2-dimethyl-propyl]-amide] | 0.79 nM
10 | N#CC1CCN(C(=O)[C@H](NC(=O)c2c[nH]c3ncc(C4CC4)nc23)C2CC2)CC1 [Example I-61, 2-Cyclopropyl-5H-pyrrolo[2,3-b]pyrazine-7-carboxylic acid [(R)-2-(4-cyano-piperidin-1-yl)-1-cyclopropyl-2-oxo-ethyl]-amide] | 0.42 nM
11 | COc1cc(-c2cnc3[nH]cc(C(=O)N[C@@H](C(=O)N4CCC(C#N)CC4)C(C)(C)C)c3n2)cc(OC)c1OC [Example I-64, 2-(3,4,5-Trimethoxy-phenyl)-5H-pyrrolo[2,3-b]pyrazine-7-carboxylic acid [(R)-1-(4-cyano-piperidine-1-carbonyl)-2,2-dimethyl-propyl]-amide] | 94.9 nM
12 | N#CC1CN(C(=O)[C@H](NC(=O)c2c[nH]c3ncc(C4CC4)nc23)C2CC2)C1 [Example I-68, 2-Cyclopropyl-5H-pyrrolo[2,3-b]pyrazine-7-carboxylic acid [(R)-2-(3-cyano-azetidin-1-yl)-1-cyclopropyl-2-oxo-ethyl]-amide] | 0.58 nM
13 | CC(C)C[C@@H](NC(=O)c1c[nH]c2ncc(-c3cnn(C)c3)nc12)C(=O)N1CC(C#N)C1 [Example I-69, 2-(1-Methyl-1H-pyrazol-4-yl)-5H-pyrrolo[2,3-b]pyrazine-7-carboxylic acid [(R)-1-(3-cyano-azetidine-1-carbonyl)-3-methyl-butyl]-amide] | ≤ 0.32 nM
14 | CCn1cc(-c2cnc3[nH]cc(C(=O)N[C@@H](C(=O)N4CCC(C#N)CC4)C4CC4)c3n2)cn1 [Example I-71, 2-(1-Ethyl-1H-pyrazol-4-yl)-5H-pyrrolo[2,3-b]pyrazine-7-carboxylic acid [(R)-2-(4-cyano-piperidin-1-yl)-1-cyclopropyl-2-oxo-ethyl]-amide] | 3.92 nM
15 | CCn1cc(-c2cnc3[nH]cc(C(=O)N[C@H](C(=O)N4CCC(C#N)CC4)C4(C(F)(F)F)CC4)c3n2)cn1 [Example I-74, 2-(1-Ethyl-1H-pyrazol-4-yl)-5H-pyrrolo[2,3-b]pyrazine-7-carboxylic acid [(S)-2-(4-cyano-piperidin-1-yl)-2-oxo-1-(1-trifluoromethyl-cyclopropyl)-ethyl]-amide] | 1.13 nM
16 | Cn1cc(-c2cnc3[nH]cc(C(=O)N[C@@H](C(=O)N4CC(C#N)C4)C4CCCCC4)c3n2)cn1 [Example I-76, 2-(1-Methyl-1H-pyrazol-4-yl)-5H-pyrrolo[2,3-b]pyrazine-7-carboxylic acid [(R)-2-(3-cyano-azetidin-1-yl)-1-cyclohexyl-2-oxo-ethyl]-amide] | 11.8 nM
17 | CC(C)(C)[C@@H](NC(=O)c1c[nH]c2ncc(-c3cnn(CC(F)(F)F)c3)nc12)C(=O)N1CCC(C#N)CC1 [Example I-79, 2-[1-(2,2,2-Trifluoro-ethyl)-1H-pyrazol-4-yl]-5H-pyrrolo[2,3-b]pyrazine-7-carboxylic acid [(R)-1-(4-cyano-piperidine-1-carbonyl)-2,2-dimethyl-propyl]-amide] | ≤ 0.32 nM
18 | Cn1cc(-c2cnc3[nH]cc(C(=O)N[C@@H](C(=O)N4CC[C@H](C#N)C4)C4CC4)c3n2)cn1 [Example I-81, 2-(1-Methyl-1H-pyrazol-4-yl)-5H-pyrrolo[2,3-b]pyrazine-7-carboxylic acid [(R)-2-((S)-3-cyano-pyrrolidin-1-yl)-1-cyclopropyl-2-oxo-ethyl]-amide] | ≤ 0.32 nM

More lines, now with the values ahead:

Row | IC50 | SMILES
19 | 1.01 nM | CC(C)(C)C[C@@H](NC(=O)c1c[nH]c2ncc(C3CC3)nc12)C(=O)N1CCC(C#N)CC1 [Example I-49, 2-Cyclopropyl-5H-pyrrolo[2,3-b]pyrazine-7-carboxylic acid [(R)-1-(4-cyano-piperidine-1-carbonyl)-3,3-dimethyl-butyl]-amide]
20 | 440 nM | CC(C)(C)[C@@H](NC(=O)c1c[nH]c2ncc(C3CC3)nc12)C(=O)N1CCC(F)(F)CC1 [Example I-52, 2-Cyclopropyl-5H-pyrrolo[2,3-b]pyrazine-7-carboxylic acid [(R)-1-(4,4-difluoro-piperidine-1-carbonyl)-2,2-dimethyl-propyl]-amide]
21 | 1.52 nM | Cn1cc(-c2cnc3[nH]cc(C(=O)N[C@@H](C(=O)N4CCC(C#N)CC4)C(C)(C)C)c3n2)cn1 [Example I-55, 2-(1-Methyl-1H-pyrazol-4-yl)-5H-pyrrolo[2,3-b]pyrazine-7-carboxylic acid [(R)-1-(4-cyano-piperidine-1-carbonyl)-2,2-dimethyl-propyl]-amide]
22 | 0.77 nM | CCn1cc(-c2cnc3[nH]cc(C(=O)N[C@@H](C(=O)N4CCC(C#N)CC4)C(C)(C)C)c3n2)cn1 [Example I-56, 2-(1-Ethyl-1H-pyrazol-4-yl)-5H-pyrrolo[2,3-b]pyrazine-7-carboxylic acid [(R)-1-(4-cyano-piperidine-1-carbonyl)-2,2-dimethyl-propyl]-amide]
23 | ≤ 0.32 nM | CC(=O)N1CCN(C(=O)[C@H](NC(=O)c2c[nH]c3ncc(C4CC4)nc23)C(C)(C)C)CC1 [Example I-57, 2-Cyclopropyl-5H-pyrrolo[2,3-b]pyrazine-7-carboxylic acid [(R)-1-(4-acetyl-piperazine-1-carbonyl)-2,2-dimethyl-propyl]-amide]
24 | 0.49 nM | CC(C)(C)[C@@H](NC(=O)c1c[nH]c2ncc(C3CC3)nc12)C(=O)N1CCC(C(F)(F)F)CC1 [Example I-58, 2-Cyclopropyl-5H-pyrrolo[2,3-b]pyrazine-7-carboxylic acid [(R)-2,2-dimethyl-1-(4-trifluoromethyl-piperidine-1-carbonyl)-propyl]-amide]
25 | 0.87 nM | CC(C)(C)[C@@H](NC(=O)c1c[nH]c2ncc(C3CC3)nc12)C(=O)N1CCC(O)(c2ccccc2)CC1 [Example I-65, 2-Cyclopropyl-5H-pyrrolo[2,3-b]pyrazine-7-carboxylic acid [(R)-1-(4-hydroxy-4-phenyl-piperidine-1-carbonyl)-2,2-dimethyl-propyl]-amide]
26 | 3.34 nM | CC1(O)CCN(C(=O)[C@H](NC(=O)c2c[nH]c3ncc(C4CC4)nc23)C(C)(C)C)CC1 [Example I-73, 2-Cyclopropyl-5H-pyrrolo[2,3-b]pyrazine-7-carboxylic acid [(R)-1-(4-hydroxy-4-methyl-piperidine-1-carbonyl)-2,2-dimethyl-propyl]-amide]
27 | ≤ 0.32 nM | Cn1cnc(-c2cnc3[nH]cc(C(=O)N[C@@H](C(=O)N4CCC(C#N)CC4)C(C)(C)C)c3n2)c1 [Example I-77, 2-(1-Methyl-1H-imidazol-4-yl)-5H-pyrrolo[2,3-b]pyrazine-7-carboxylic acid [(R)-1-(4-cyano-piperidine-1-carbonyl)-2,2-dimethyl-propyl]-amide]
28 | ≤ 0.32 nM | CC(C)(C)[C@@H](NC(=O)c1c[nH]c2ncc(-c3cnn(C4CC4)c3)nc12)C(=O)N1CCC(C#N)CC1 [Example I-78, 2-(1-Cyclopropyl-1H-pyrazol-4-yl)-5H-pyrrolo[2,3-b]pyrazine-7-carboxylic acid [(R)-1-(4-cyano-piperidine-1-carbonyl)-2,2-dimethyl-propyl]-amide]
